Earlier results in US8748695B2, “Molecular markers linked to PPO inhibitor tolerance in soybeans” (Pioneer Hi-Bred International, Inc., priority 2008, dated 2014).

Columns and labels:
soybean cultivars = settings: in vivo

Row | SMILES | half-life | Growth Reduction Index (soybean cultivars)
1 | Cc1nn(-c2cc(CC(Cl)C(=O)O)c(Cl)cc2F)c(=O)n1C(F)F (centres unmarked) [Carfentrazone] | approximately 4 days | –
2 | Cc1nn(-c2cc(NS(C)(=O)=O)c(Cl)cc2Cl)c(=O)n1C(F)F [sulfentrazone] | – | 20%
